{"source": "DBAASP", "experiment_in_all_cases": "≥ marks a high value that may be exact or a test limit, other limits are often not marked, values filed in µg/mL are converted to µM", "key": {"[1]": {"system": "Candida albicans IHEM 8060"}, "Candida glabrata": {"system": "Candida glabrata"}, "[2]": {"system": "Staphylococcus aureus ATCC 2592"}, "[3]": {"system": "Rhodococcus rhodochrous X15"}, "[4]": {"system": "Psychrobacter faecalis X29"}, "[5]": {"system": "Bacillus licheniformis X39"}, "[6]": {"system": "Staphylococcus carnosus KHS"}, "[7]": {"system": "Escherichia coli ATCC 25922"}, "[8]": {"system": "Enterococcus faecalis ATCC 29212"}, "[9]": {"system": "Staphylococcus aureus ATCC 25923"}, "[10]": {"system": "Listeria monocytogenes 10403s"}, "Acinetobacter baumannii": {"system": "Acinetobacter baumannii"}, "[11]": {"system": "Shigella sonnei ATCC 11060"}, "Escherichia coli O157:H7": {"system": "Escherichia coli O157:H7"}, "Vibrio cholerae O1 Inaba": {"system": "Vibrio cholerae O1 Inaba"}, "[12]": {"system": "Bacillus cereus ATCC 11778"}, "[13]": {"system": "Staphylococcus epidermidis ATCC 12228"}, "[14]": {"system": "Pseudomonas aeruginosa ATCC 27853"}, "[15]": {"system": "Salmonella enterica subsp. enterica serovar Typhimurium ATCC 13311"}, "Pseudomonas aeruginosa 1": {"system": "Pseudomonas aeruginosa 1"}, "Pseudomonas aeruginosa": {"system": "Pseudomonas aeruginosa"}, "[16]": {"system": "Staphylococcus aureus 1056"}, "[17]": {"system": "Staphylococcus aureus ATCC 29231"}, "[18]": {"system": "Candida albicans ATCC 10231"}, "[19]": {"system": "Staphylococcus aureus MW2"}, "[20]": {"system": "Klebsiella aerogenes ATCC 13048"}, "[21]": {"system": "Bacillus subtilis IFO 3336"}, "[22]": {"system": "Escherichia coli IFO 3301"}}, "data": [{"smiles": "CC[C@H](C)[C@@H]1NC(=O)[C@@H](N)CSSC[C@@H]2NC(=O)[C@@H]3CSSC[C@@H](C(=O)N[C@@H](CCCN=C(N)N)C(=O)O)NC(=O)[C@H](Cc4ccc(O)cc4)NC(=O)CNC(=O)[C@H](C)NC(=O)[C@H](C(C)C)NC(=O)[C@H](Cc4c[nH]c5ccccc45)NC(=O)CNC(=O)[C@@H]4CCCN4C(=O)[C@H](CCC(=O)O)NC(=O)[C@H](CCCCN)NC(=O)[C@H](Cc4cnc[nH]4)NC(=O)[C@H](CSSC[C@H](NC(=O)CNC(=O)[C@H](CC(N)=O)NC(=O)CNC(=O)[C@H](CC(N)=O)NC(=O)[C@H](CCCCN)NC1=O)C(=O)N[C@@H](CCC(N)=O)C(=O)N1CCC[C@H]1C(=O)N[C@@H](CC(=O)O)C(=O)NCC(=O)N[C@@H](CO)C(=O)N[C@@H](CCC(N)=O)C(=O)NCC(=O)N[C@@H](CC(N)=O)C(=O)N3)NC(=O)[C@H](Cc1ccc(O)cc1)NC(=O)[C@H](CCCN=C(N)N)NC(=O)[C@H](CO)NC2=O", "note": "[CIKNGNGCQPDGSQGNCCSRYCHKEPGWVAGYCR]", "values": [{"measurement": "MIC", "setting": "[1]", "value": 17.3, "unit": "µM"}, {"measurement": "MIC", "setting": "Candida glabrata", "value": 17.3, "unit": "µM"}]}, {"smiles": "CC[C@H](C)[C@@H]1NC(=O)[C@H](CCCCN)NC(=O)[C@@H](NC(=O)[C@H](Cc2ccccc2)NC(=O)[C@H](CC(C)C)NC(=O)[C@@H](NC(=O)[C@@H]2CCCN2C(=O)[C@@H](NC(=O)[C@@H](NC(=O)[C@H](CCCCN)NC(=O)CNC(=O)[C@@H](NC(=O)[C@H](CC(C)C)NC(=O)CNC(=O)[C@H](CC(C)C)NC(=O)[C@H](CC(C)C)NC(=O)[C@H](CO)NC(=O)CNC(=O)[C@H](CC(C)C)NC(=O)[C@@H](N)Cc2ccccc2)C(C)C)C(C)C)C(C)C)[C@@H](C)O)CSSC[C@@H](C(=O)O)NC(=O)[C@H](CCCCN)NC(=O)[C@H](CCCCN)NC(=O)[C@H](CO)NC1=O", "note": "[FLGSLLGLVGKVVPTLFCKISKKC]", "values": [{"measurement": "MIC", "setting": "[2]", "value": 1.22, "unit": "µM"}, {"measurement": "MIC", "setting": "[3]", "value": 1.22, "unit": "µM"}, {"measurement": "MIC", "setting": "[4]", "value": 4.9, "unit": "µM"}, {"measurement": "MIC", "setting": "[5]", "value": 9.8, "unit": "µM"}, {"measurement": "MIC", "setting": "[6]", "value": 4.9, "unit": "µM"}]}, {"smiles": "CC[C@H](C)[C@H](NC(=O)[C@H](CCCN=C(N)N)NC(=O)[C@H](CCCCN)NC(=O)[C@H](C)NC(=O)[C@@H](NC(=O)[C@@H](N)CCCCN)[C@@H](C)CC)C(=O)N[C@@H](Cc1c[nH]c2ccccc12)C(=O)N[C@@H](CCCCN)C(=O)N[C@H](C(=O)N[C@@H](CC(C)C)C(=O)N[C@@H](CCCN=C(N)N)C(=O)N[C@@H](CCCN=C(N)N)C(=O)N[C@@H](CCCN=C(N)N)C(=O)N[C@@H](CC(C)C)C(N)=O)[C@@H](C)CC", "note": "[KIAKRIWKILRRRL]", "values": [{"measurement": "MIC", "setting": "[7]", "value": 8.45, "unit": "µM"}, {"measurement": "MIC", "setting": "[8]", "value": 67.6, "unit": "µM"}, {"measurement": "MIC", "setting": "[9]", "value": 8.45, "unit": "µM"}, {"measurement": "MIC", "setting": "[10]", "value": 1.05, "unit": "µM"}, {"measurement": "MIC", "setting": "Acinetobacter baumannii", "value": 2.11, "unit": "µM"}, {"measurement": "MIC", "setting": "[11]", "value": 2.11, "unit": "µM"}, {"measurement": "MIC", "setting": "Escherichia coli O157:H7", "value": "≥ 33.8", "unit": "µM"}, {"measurement": "MIC", "setting": "Vibrio cholerae O1 Inaba", "value": 4.22, "unit": "µM"}, {"measurement": "MIC", "setting": "[12]", "value": 4.22, "unit": "µM"}, {"measurement": "MIC", "setting": "[13]", "value": 2.11, "unit": "µM"}, {"measurement": "MIC", "setting": "[14]", "value": 2.11, "unit": "µM"}, {"measurement": "MIC", "setting": "[15]", "value": 1.05, "unit": "µM"}]}, {"smiles": "CC[C@H](C)[C@H](NC(=O)[C@H](CCCN=C(N)N)NC(=O)[C@H](CCCCN)NC(=O)[C@H](C)NC(=O)[C@@H](NC(=O)[C@@H](N)CCCCN)[C@@H](C)CC)C(=O)N[C@@H](Cc1c[nH]c2ccccc12)C(=O)N[C@@H](CCCCN)C(=O)N[C@H](C(=O)N[C@@H](CC(C)C)C(=O)N[C@@H](CCCN=C(N)N)C(=O)N[C@@H](CCCN=C(N)N)C(=O)N[C@@H](CCCN=C(N)N)C(N)=O)[C@@H](C)CC", "note": "[KIAKRIWKILRRR]", "values": [{"measurement": "MIC", "setting": "[7]", "value": 18, "unit": "µM"}, {"measurement": "MIC", "setting": "[8]", "value": 144, "unit": "µM"}, {"measurement": "MIC", "setting": "[9]", "value": 36, "unit": "µM"}, {"measurement": "MIC", "setting": "[10]", "value": 2.25, "unit": "µM"}, {"measurement": "MIC", "setting": "Acinetobacter baumannii", "value": 4.5, "unit": "µM"}, {"measurement": "MIC", "setting": "[11]", "value": 2.25, "unit": "µM"}, {"measurement": "MIC", "setting": "Escherichia coli O157:H7", "value": 18, "unit": "µM"}, {"measurement": "MIC", "setting": "Pseudomonas aeruginosa 1", "value": 2.25, "unit": "µM"}, {"measurement": "MIC", "setting": "Vibrio cholerae O1 Inaba", "value": 18, "unit": "µM"}, {"measurement": "MIC", "setting": "[12]", "value": 9, "unit": "µM"}, {"measurement": "MIC", "setting": "Pseudomonas aeruginosa", "value": 4.5, "unit": "µM"}, {"measurement": "MIC", "setting": "[13]", "value": 2.25, "unit": "µM"}, {"measurement": "MIC", "setting": "[15]", "value": 1.12, "unit": "µM"}]}, {"smiles": "CC(C)C[C@@H]1NC(=O)[C@H](Cc2cnc[nH]2)NC(=O)[C@H](C)NC(=O)[C@@H]2CCCN2C(=O)[C@@H]2CSSC[C@@H](C(=O)N[C@@H](CCCCN)C(=O)N[C@@H](Cc3c[nH]c4ccccc34)C(=O)N3CCC[C@H]3C(=O)N[C@@H](Cc3c[nH]c4ccccc34)C(=O)N[C@@H](CC(=O)O)C(=O)N[C@H](C(=O)O)C(C)C)NC(=O)[C@@H]3CSSC[C@H](NC(=O)[C@H](Cc4ccccc4)NC(=O)[C@@H](N)CC(C)C)C(=O)N[C@@H](CCCN=C(N)N)C(=O)N[C@@H](CCCCN)C(=O)NCC(=O)N[C@@H]([C@@H](C)O)C(=O)N[C@@H](CSSC[C@H](NC(=O)[C@H](CO)NC(=O)CNC(=O)[C@H](C(C)C)NC(=O)[C@H](CCCCN)NC(=O)[C@H](C(C)C)NC1=O)C(=O)N[C@@H](Cc1ccccc1)C(=O)NCC(=O)N[C@@H](Cc1ccccc1)C(=O)N[C@@H](CCCN=C(N)N)C(=O)N[C@@H](C)C(=O)N3)C(=O)N[C@@H](Cc1cnc[nH]1)C(=O)N[C@@H](Cc1ccccc1)C(=O)NCC(=O)NCC(=O)N2", "note": "[LFCRKGTCHFGGCPAHLVKVGSCFGFRACCKWPWDV]", "values": [{"measurement": "MIC", "setting": "[16]", "value": 0.291, "unit": "µM"}, {"measurement": "MIC", "setting": "Escherichia coli O157:H7", "value": 0.321, "unit": "µM"}]}, {"smiles": "CC[C@H](C)[C@H](NC(=O)[C@H](CCCCN)NC(=O)[C@H](CCCCN)NC(=O)[C@H](CC(C)C)NC(=O)[C@@H](NC(=O)[C@H](CCCCN)NC(=O)[C@H](Cc1c[nH]c2ccccc12)NC(=O)[C@@H](N)CC(C)C)[C@@H](C)CC)C(=O)N[C@@H](Cc1c[nH]c2ccccc12)C(=O)N[C@@H](CCCN=C(N)N)C(=O)N[C@H](C(=O)NCC(=O)N[C@@H](Cc1c[nH]c2ccccc12)C(=O)N[C@@H](CC(N)=O)C(=O)N[C@@H](Cc1c[nH]c2ccccc12)C(=O)N[C@@H](CCCN=C(N)N)C(=O)O)C(C)C", "note": "[LWKILKKIWRVGWNWR]", "values": [{"measurement": "MIC", "setting": "[17]", "value": 7.33, "unit": "µM"}, {"measurement": "MIC", "setting": "[18]", "value": 29.3, "unit": "µM"}, {"measurement": "MIC", "setting": "[19]", "value": 14.7, "unit": "µM"}, {"measurement": "MIC", "setting": "[20]", "value": "≥ 58.6", "unit": "µM"}]}, {"smiles": "NC(N)=NCCC[C@H](NC(=O)[C@H](CS)NC(=O)[C@H](CCCN=C(N)N)NC(=O)[C@H](CS)NC(=O)[C@H](CCCN=C(N)N)NC(=O)[C@H](CS)NC(=O)[C@H](CCCN=C(N)N)NC(=O)[C@H](CS)NC(=O)[C@@H](N)CCCN=C(N)N)C(=O)N[C@@H](CS)C(=O)O", "note": "[RCRCRCRCRC]", "values": [{"measurement": "MIC", "setting": "[21]", "value": 7.61, "unit": "µM"}, {"measurement": "MIC", "setting": "[22]", "value": 15.2, "unit": "µM"}]}]}
